Experiment [1] concerns succinic acid dehydrogenase activity of mitochondria. The experiment can be described thus: Succinic acid dehydrogenase activity in muscle cell. Type of experiment: cell-based, Mouse. The following applies: for succinic acid dehydrogenase activity: two days, control group 100. On the procedure:
• (1) In the same manner as in Example 1, C2C12 cells were cultured in a growth medium to not less than 90% confluence. • (2) The medium was exchanged with a differentiation medium, and the cells were cultured until observation of myotube formation under a microscope. • (3) The compounds of Reference Example 1 and Reference Example 7 were added, and the cells were cultured for two days. • (4) ATP content was measured using Cell Titer-Glo™ Luminescence cell viable assay (Promega) and succinic acid dehydrogenase activity of mitochondria was measured using Cell Counting Kit-8 (Dojin). The data of Table 17 show mean±standard deviation at n=3-4 (n is the number of samples).

In experiment [2] the test system is C2C12 cells. The experiment can be described thus: Sugar uptake promoting activity in muscle cell (2DG uptake). Type of experiment: cell-based, Mouse. To be noted: for 2DG uptake (%): control group (DMSO) = 100%. On the procedure:
• (1) In the same manner as in Example 1, C2C12 cells were cultured in a growth medium to not less than 90% confluence. • (2) The medium was exchanged with a differentiation medium, and the cells were cultured until observation of myotube formation under a microscope. • (3) The compounds of Reference Example 1 and Reference Example 7 were added, and the cells were cultured overnight. • (4) The cells were washed with krebs-ringer HEPES phosphate buffer added with 1% bovine serum albumin, cultured for 30 min in this buffer, 2-deoxyglucose (2DG) (0.1 mM, 0.8 μCi/250 μL) was added and the cells were cultured at 37° C. for 75 min. • (5) The cells were washed 4 times with PBS, MicroScint-20 (125 μL/well, PerkinElmer) was added and the radioactivity was measured by a scintillation counter. DMSO (dimethyl sulfoxide) alone was added to the control group. The numerical values of 2DG uptake in Table 10 are relative values to the control group as 100%.
The data in Table 10 show mean±standard deviation at n=6 (n is the number of samples).

For experiment [3], the system named is C2C12 cell. The experiment can be described thus: Sugar metabolism promoting activity in muscle cell (lactic acid production). The class given is cell-based, Mouse. To be noted: Mus musculus, 48 h; compound 1 μM, 2 days, C2C12 myotubes; without drug = 100%; read-out: lactic acid production promoting action (%). On the procedure: • (1) In the same manner as in Example 1, C2C12 cell was cultured in a growth medium. After reaching subconfluence of not less than 90%, the medium was exchanged with a differentiation medium and the cells were cultured for about 7 days while exchanging the medium every 2 or 3 days until the cells differentiated to form a myotube. • (2) After confirmation of myotube formation under a microscope, the test compound (1 μM) was added to a differentiation medium and cultured for 2 days. The cells were washed with Krebs-Ringer HEPES phosphate buffer (10 mM HEPES, pH 7.4, 131 mM NaCl, 4.7 mM KCl, 2.5 mM CaCl2—2H2O, 1.2 mM MgSO4—7H2O, 1.2 mM KH2PO4), the medium was exchanged with Krebs-Ringer HEPES phosphate buffer added with 5 mM glucose, 0.2% fatty acid-free bovine serum albumin, and cultured at 37° C. for 4 hr. • (3) The lactic acid concentration of the culture supernatant was measured using Detarminer LA kit (Kyowa Medex Co., Ltd.).
The numerical values in Table 2 show the concentration of the compound addition group with the concentration of lactic acid without addition of a drug as 100%.

In experiment [4] the test system is Female KKA^y mice. The experiment can be described thus: Anti-diabetes action and dyslipidemia improving effect in KKA^y mouse. Type of experiment: in vivo. The following applies: 2 weeks, control group = 100. On the procedure:
Female KKA^y mice (12-week-old, CLEA Japan, Inc.) were bred while allowing free ingestion of both feed and water. The mice were bred for acclimation with powder CE-2 (CLEA Japan, Inc.) from 2 weeks before administration of the compound. The body weight and plasma markers were measured and, at 14 weeks of age, they were divided such that the measured values were uniform with those of the control group. The compound of Reference Example 1, 2, 7, 8, 9 or 22 was administered for 2 weeks in a mixed feed (0.01-0.0001%). On the last day, plasma levels of glucose, insulin, total cholesterol and neutral lipid were measured.

For experiment [5], the system named is C2C12 cells. The experiment can be described thus: Action on muscle cell differentiation suppressed by TNF-α (creatine kinase activity). The class given is cell-based, Mouse. The following applies: for creatine kinase activity (mIU/μg): TNF-a 30 ng/mL, 3 days. On the procedure:
• (1) In the same manner as in Example 1, C2C12 cells were cultured in a growth medium to not less than 90% confluence. • (2) The medium was exchanged with a differentiation medium, the compound of Reference Example 1 together with TNF-α were added, and the cells were cultured for 3 days. • (3) The cells were washed with PBS, 0.5% NP-40 solution was added, and the cells were lysed by freeze-thawing. The cell extract was centrifuged and the creatine kinase activity in the supernatant was measured as an index of muscle differentiation. The creatine kinase activity was measured using CPKII Test Wako (Wako Pure Chemical Industries, Ltd.) according to the manual of the kit.
The data in Table 9 show mean±standard deviation at n=3 (n is the number of samples).

Experiment [6] has as its system phosphorylated acetyl-CoA carboxylase (ACC). The experiment can be described thus: Phosphorylated acetyl-CoA carboxylase (ACC) amount in muscle cell. The class given is cell-based, Mouse. To be noted: for Phospho-ACC amount (%): 3 days, amended with total ACC, no compound = 100%. On the procedure: • (1) In the same manner as in Example 1, C2C12 cells were cultured in a growth medium. After reaching subconfluence of not less than 90%, the medium was exchanged with a differentiation medium and the cells were cultured for about 4 days while exchanging the medium every 2 or 3 days until the cells differentiated to form a myotube. • (2) After confirmation of myotube formation under a microscope, the test compound (0.1-10 nM) was added to a differentiation medium and cultured for 3 days. Thereafter, the cells were fixed with 4% formaldehyde phosphate buffer for 10 min, and washed 4 times with PBS containing 0.1% TritonX-100. • (3) Odyssey Blocking Buffer (LI-COR Biosciences) was added, and the mixture was incubated at room temperature for 1 hr. Thereafter, primary antibody (ACCα (T-18) (Santacruz) and Phospho-ACC (Ser79) (Upstate)) were added, and the mixture was incubated at 4° C. overnight. • (4) The cells were washed 4 times with PBS containing 0.1% Tween20, secondary antibody (Donkey anti-goat IRDye 800CW (LI-COR Biosciences) and Donkey anti-mouse IRDye 680 (LI-COR Biosciences)) were added and the mixture was incubated under shading at room temperature for 1 hr. • (5) The cells were washed 4 times with PBS containing 0.1% Tween20, PBS was added, and the phospho-ACC amount and total ACC amount were measured using Odyssey2.1 (LI-COR Biosciences).
The numerical values in Table 20 were obtained by amending the phospho-ACC amount with total ACC amount and are shown based on the absence of addition of the compound as 100%. n is the number of samples.

The structures appear in SMILES notation. Several values for one entry are separate records, joined by “and”; a condition that tells them apart may be missing. Equal entries are not always repeated.

For the molecule `Cn1ncc2c1-c1c(Oc3cccnc3)sc(C(N)=O)c1CC2` [Ref. Ex. 7, 1-methyl-8-(pyridin-3-yloxy)-4,5-dihydro-1H-thieno[3,4-g]indazole-6-carboxamide], in experiment [1], the “succinic acid dehydrogenase activity (in words)” value is reported as “increased”. Also, the “succinic acid dehydrogenase activity” value was 111 ± 3 in experiment [1] (compound 1 nM), 120 ± 4 in experiment [1] (compound 10 nM) and 131 ± 7 in experiment [1] (compound 100 nM). Moreover, in experiment [2], the “sugar uptake of C2C12 cell differentiated into muscle cell (in words)” value was “promoted”. Further, the “2DG uptake (%)” value in experiment [2] (compound 0.1 nM overnight) is recorded as 69%; in experiment [2] (compound 1 nM overnight), 100%; in experiment [2] (compound 10 nM overnight) it was 137%; in experiment [2] (compound 100 nM overnight), 181%. For the same molecule, the activity at 1 µM in experiment [3] came out at 254%. In addition, the “plasma glucose (%)” value in experiment [4] (mixed feed dose 0.01 %) stood at 40.3 ± 4.5%. Moreover, in experiment [4] (mixed feed dose 0.01 %), the “plasma insulin (%)” value came to 2.9 ± 1.7%. Moreover, the “plasma neutral lipid (%)” value in experiment [4] (mixed feed dose 0.01 %) is recorded as 33.9 ± 8.6%. Besides, the “plasma total cholesterol (%)” value in experiment [4] (mixed feed dose 0.01 %) was 64.8 ± 12.0%.
Regarding `Cc1ncccc1Oc1sc(C(N)=O)c2c1-c1c(cnn1C)CC2` [Ref. Ex. 1, 1-methyl-8-[(2-methylpyridin-3-yl)oxy]-4,5-dihydro-1H-thieno[3,4-g]indazole-6-carboxamide], the “succinic acid dehydrogenase activity (in words)” value in experiment [1] was “increased”. In addition, the “succinic acid dehydrogenase activity” value is given as 98 ± 10 in experiment [1] (compound 0.01 nM), 113 ± 5 in experiment [1] (compound 0.1 nM) and 124 ± 3 in experiment [1] (compound 1 nM). Moreover, in experiment [2], the “sugar uptake of C2C12 cell differentiated into muscle cell (in words)” value is listed as “promoted”. The “2DG uptake (%)” value in experiment [2] (compound 0.1 nM overnight) was determined as 89%; in experiment [2] (compound 1 nM overnight) it was 150%; in experiment [2] (compound 10 nM overnight) it was 166%; in experiment [2] (compound 100 nM overnight) it was 187%. Besides, the activity at 1 µM in experiment [3] was 247%. Moreover, the “plasma glucose (%)” value in experiment [4] (mixed feed dose 0.0001 %) is on record as 53.2 ± 19.1%. Moreover, the “plasma insulin (%)” value in experiment [4] (mixed feed dose 0.0001 %) came out at 27.3 ± 19.5%. In addition, in experiment [4] (mixed feed dose 0.0001 %), the “plasma neutral lipid (%)” value is listed as 38.9 ± 11.0%. The “plasma total cholesterol (%)” value in experiment [4] (mixed feed dose 0.0001 %) is recorded as 61.6 ± 10.8%. Moreover, in experiment [5], the “creatine kinase activity decreased by TNF-α (in words)” value was “recovered”. For the same molecule, the “creatine kinase activity (mIU/μg)” value is 0.12 mIU/μg and 0.15 mIU/μg in experiment [5] (compound 0 nM as printed); 0.25 mIU/μg in experiment [5] (compound 1 nM); 0.39 mIU/μg in experiment [5] (compound 3 nM). Besides, the “Phospho-ACC amount (%)” value was determined as 112% in experiment [6] (compound 0.1 nM); 125% in experiment [6] (compound 0.3 nM); 136% in experiment [6] (compound 1 nM); 167% in experiment [6] (compound 3 nM); 163% in experiment [6] (compound 10 nM). Besides, the “phospho-ACC amount (in words)” value in experiment [6] (differentiated C2C12 muscle cell) is “increased”.

These data come from patent publication US20130184272A1, “DIABETES THERAPEUTIC AGENT” (TAKEDA PHARMACEUTICAL COMPANY LIMITED, priority 2010, published 2013).
